The test system of one experiment is Ito. Conditions: at concentrations of 8 to 30 nM; cited from earlier work.
The target in the next experiment is IKs (Homo sapiens, UniProt P51787). Conditions: at concentrations of 8 to 30 nM; cited from earlier work.
For experiment [1], the system named is instantaneous inward-rectifier current. The experiment can be described thus: Whole-cell patch-clamp of instantaneous inward-rectifier current in canine cardiomyocytes. Conditions: 1 μM tertiapin-Q; not statistically significant. The experiment is classed as cell-based. The method, then:
(§1) Adult mongrel dogs of either sex (weighing about 20-35 kg) were anaesthetized with pentobarbital (30 mg kg^−1 I.V.) and artificially ventilated with room air. Hearts and adjacent lung tissue were relatively quickly excised through a left lateral thoracotomy and immersed in oxygenated Tyrode solution (composition detailed hereinbelow) at room temperature. […] A left atrial (LA) preparation with the PVs intact was perfused via the left circumflex coronary artery, and subjected to either standard fine-tipped microelectrode recording of action potentials (APs) or cardiomyocyte isolation with collagenase-containing solutions, as previously described (Ehrlich et al. 2003). Six dogs were subjected to atrial tachycardia-induced remodeling induced by 1 week of atrial pacing at about 400 beats min^−1 after ablation of the AV node, as described in Li et al. 1999. Animal care and handling procedures followed the guidelines of the Canadian Council on Animal Care.
To isolate LA and PV cardiomyocytes, the proximal circumflex artery was cannulated and the distal ends of PV myocardial sleeves (approximately 1-1.5 cm from the PV-LA junction) were marked with silk thread prior to subsequent enzyme perfusion with collagenase (100 U ml^−1, Worthington, type II), in order to facilitate localization of PV sleeves after enzymatic digestion. […] All comparisons were based on PV and LA cardiomyocytes isolated from each dog on each experimental day. After isolation, cells were stored at 4° C. and studied on the same day. […]
Currents were recorded with the whole-cell patch-clamp technique at 36±0.5° C., as described in Yue et al. 1996. […] Capacitance was assessed using 5 mV, 10 ms hyperpolarizing steps from a holding potential (HP) of −60 mV. […]
Currents were recorded with hyperpolarizing and depolarizing pulses (generally 4 s duration) from a HP of −40 mV to selected test potentials (TPs). […] For the determination of reversal potentials, tail currents were recorded after 1.6 s pulses to −120 mV followed by 3.2 s depolarizations to TPs between −110 and +20. […]

The next experiment has as its system IKH. The format is cell-based, canine. The procedure:
as §1
To isolate LA and PV cardiomyocytes, the proximal circumflex artery was cannulated and the distal ends of PV myocardial sleeves (approximately 1-1.5 cm from the PV-LA junction) were marked with silk thread prior to subsequent enzyme perfusion with collagenase (100 U ml^−1, Worthington, type II), in order to facilitate localization of PV sleeves after enzymatic digestion. […] All comparisons were based on PV and LA cardiomyocytes isolated from each dog on each experimental day. After isolation, cells were stored at 4° C. and studied on the same day. For standard microelectrode experiments, intact tissue preparations including the LA and adjacent PVs were mounted in a chamber and perfused via the circumflex artery with oxygenated Krebs solution at 36±0.5° C. (see for example Kneller et al. 2002).
Currents were recorded with the whole-cell patch-clamp technique at 36±0.5° C., as described in Yue et al. 1996. All junction potentials were zeroed prior to formation of gigaohm seals. […] Capacitance was assessed using 5 mV, 10 ms hyperpolarizing steps from a holding potential (HP) of −60 mV. […] Original recordings are shown in terms of current amplitude, but mean data are presented as current density (pA pF−1) to control for variability in cell size.
Currents were recorded with hyperpolarizing and depolarizing pulses (generally 4 s duration) from a HP of −40 mV to selected test potentials (TPs). Recordings were repeated 3 times, and mean values obtained. For the determination of reversal potentials, tail currents were recorded after 1.6 s pulses to −120 mV followed by 3.2 s depolarizations to TPs between −110 and +20. All voltage protocols were delivered at 0.1 Hz.
Tyrode solution contained (mM): NaCl 136, KCl 5.4, MgCl2 1, CaCl2 1, NaH2PO4 0.33, Hepes 5 and dextrose 10 (pH 7.35 with NaOH). The cell-storage solution contained (mM): KCl 20, KH2PO4 10, dextrose 10, mannitol 40, L-glutamic acid 70, β-OH-butyric acid 10, taurine 20, EGTA 10 and 0.1% bovine serum albumin (pH 7.3, KOH). Nifedipine (5 μM) was used to suppress L-type Ca^2+ current (ICa) in all experiments. 4-Aminopyridine (4-AP, 2 mM) was added to suppress transient outward current (Ito). […] Na+ current (INa) contamination was avoided by using a HP of −40 mV for recording of hyperpolarization-induced currents and by substitution of equimolar Tris-HCl for external NaCl for tail-current recordings.

Another experiment has as its target T1, Kir 3.1/3.4 currents (Homo sapiens, UniProt P48544+P48549).
T1 sequence (P48549 1-501): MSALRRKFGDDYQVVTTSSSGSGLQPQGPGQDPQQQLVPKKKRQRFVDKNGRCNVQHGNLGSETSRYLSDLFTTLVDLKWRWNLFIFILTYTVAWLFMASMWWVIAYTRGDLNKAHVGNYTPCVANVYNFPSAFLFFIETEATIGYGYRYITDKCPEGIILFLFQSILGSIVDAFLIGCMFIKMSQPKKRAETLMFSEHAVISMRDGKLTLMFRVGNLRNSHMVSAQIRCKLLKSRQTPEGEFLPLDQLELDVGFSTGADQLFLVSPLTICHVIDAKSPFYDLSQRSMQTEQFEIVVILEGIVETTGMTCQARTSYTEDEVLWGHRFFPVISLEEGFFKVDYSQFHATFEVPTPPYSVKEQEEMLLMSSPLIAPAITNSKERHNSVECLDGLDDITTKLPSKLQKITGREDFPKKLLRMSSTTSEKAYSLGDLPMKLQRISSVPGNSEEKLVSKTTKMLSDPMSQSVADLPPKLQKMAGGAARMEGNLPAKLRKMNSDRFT
T1 sequence (P48544 1-419): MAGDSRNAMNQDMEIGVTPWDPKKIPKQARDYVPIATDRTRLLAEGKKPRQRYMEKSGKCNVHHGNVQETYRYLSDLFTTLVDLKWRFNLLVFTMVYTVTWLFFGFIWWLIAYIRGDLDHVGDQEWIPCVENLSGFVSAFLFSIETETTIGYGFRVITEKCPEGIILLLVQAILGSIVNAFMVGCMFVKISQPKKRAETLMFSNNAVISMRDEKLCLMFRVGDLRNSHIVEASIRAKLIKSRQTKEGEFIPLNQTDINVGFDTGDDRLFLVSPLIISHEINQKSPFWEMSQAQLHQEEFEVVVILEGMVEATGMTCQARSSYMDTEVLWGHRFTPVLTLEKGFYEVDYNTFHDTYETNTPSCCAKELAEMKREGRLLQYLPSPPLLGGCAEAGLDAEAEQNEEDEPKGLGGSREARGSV
The following applies: Jin & Lu, 1999; cited from earlier work.

These results are taken from patent US20060094003A1, “Acetylcholine-dependent current as a novel ionic target for atrial fibrillation” (priority 2004, published 2006).

pIC50: −log10 of the molar value. Where “and” joins values, the source holds several entries; their conditions need not be identical. Equal values may be shown once.

A word on the pIC50: it is −log10 of the IC50, conventionally taken in molar units. Turning to tertiapin-Q, the “effect on Ito (in words)” value with Ito is “no effect”. Besides, the “effect on IKs (in words)” value at IKs is recorded as “no effect”. In addition, in experiment [1], the “decrease of mean instantaneous current” value was 25%. Further, the “effect on time-dependent IKH (in words)” value in the experiment on IKH (200 nM tertiapin-Q, PV cardiomyocyte) is recorded as “abolished”. Also, the “effect on time-dependent current (in words)” value in the experiment with IKH (1 μM tertiapin-Q, PV cardiomyocytes) is “eliminated”. For the same substance, the pIC50 in the experiment with IKH (at −120 mV, PV cardiomyocytes, read-out: IC50 for time-dependent IKH) is 8.00 and ~8.00; on Kir 3.1/3.4 currents it was 8.10. The same substance showed a mean end-pulse current in the experiment on IKH (at −120 mV, after 200 nM tertiapin-Q (before −2.84±0.89)) of 0.09±0.01 pA pF^−1.
